The source of these data is US8552035B2, “Phenanthrenone compounds, compositions and methods” (Pfizer Inc., priority 2008, dated 2013).

One series has as its system bone formation rate. In words: 28-day mouse side-effect model, cortical bone histomorphometry (bone formation rate). The class given is in vivo. The conditions noted are these: oral gavage 28 days, tibia cortical bone formation rate. As to the method: 10-12 week old female Swiss Webster mice (Taconic, Germantown, N.Y., U.S.A.) weighing 27-29 grams are used in accordance with the guidelines of the Institutional Animal Care and Use Committee and in accordance with NIH guidelines on laboratory animal welfare. Mice are acclimated to the Pfizer animal facility for 3-7 days prior to being placed on study. Prednisolone and DAGR compounds are administered by oral gavage for a total of 28 days. Each treatment group generally contains 8-10 mice. To establish a dosing regimen for the studies, a pilot pharmacodynamic time course experiment is conducted to quantify TNFa repression after a single ED80 dose (determined from the acute LPS endotoxemia mouse model). […] DAGR compounds vary in their required frequency of doses.
During the in-life portion of each study, mice received two IP injections of the fluorochrome calcein (C-0875; Sigma-Aldrich; 20 mg/kg; 200 μL/mouse), dissolved in 2% sodium bicarbonate, on days 1 and 26 for bone histomorphometry measurements. Fluorochrome labels incorporate into the bone mineral and allow measurement of bone formation rate. During the tissue harvest, the left tibia is excised and cleaned for cortical histomorphometry measurements. After all skin and muscle are removed, tibiae are placed in 70% ethanol (4° C.) in the dark for a minimum of 24 hours.
Ground transverse sections are used for histomorphometric analysis of cortical bone^1. Bones are sectioned using a low speed saw (Isomet, Buehler, Lake Bluff, Ill.) equipped with a diamond wafer blade. The end of each tibia is removed proximal to tibia-fibula synostosis and a […] cross-section is cut. Using a roughened glass plate and a cork, sections are ground to […] until transparent and all labels distinguishable under a fluorescent microscope. Sections are dehydrated using the following solutions for a minimum of 2 minutes each: 1) 70% ethanol, 2) 95% ethanol, 3) 100% ethanol, 4) 50/50 ethanol/xylene, and 5) xylene (twice) (Sigma, St. Louis, 534056). Sections are mounted using Eukitt Quick Mounting Medium (Sigma, St. Louis, 03989) and cover-slipped. Using the Osteomeasure Bone Analysis Program (Decatur, Ga.), bone formation rate is calculated by tracing the 1st and 2nd fluorescent labels in addition to tracing the inner and outer perimeter of the bone. Bone formation rate is calculated by the following equation: (Interlabel Width/Label Interval)*(Labeled Perimeter/Bone Perimeter). At least 5 samples are measured from each treatment group in each study.
ED50 and ED80 values are obtained for the various parameters using four-parameter logistic fits of data. For each experiment/dose group, outliers are detected by calculating the number of standard deviations each mouse's value was from the mean of their group and then dividing by the standard deviation of the group. The means and standard deviations used in this calculation omitted the value being examined so that, if it were an outlier, it would have no influence. If the value being examined is more than 2.5 standard deviations from the mean, it was not used in the rest of the calculations.
Percent inhibition values are then calculated for each animal using the means of the vehicle and 10 mpk prednisone control groups. The individual mouse percent inhibition values are then fit to a four-parameter logistic model using the area under curve mean for each group. Since all four parameters are estimated and the lower plateau is not fixed at 0% and the upper plateau was not fixed at 100%, the ED50 and ED80 values are calculated by using an inverse calibration formula for a response equal to 50% or 80%. The designation “nd” means not determined.

Another series concerns TNFα. In words: LPS-induced human whole blood, TNFα release. Format: cell-based. As to the method: Venous blood from human donors was collected as 10 ml aliquots in tubes containing sodium heparin (BD Vacutainer from Becton Dickinson and Company, Franklin Lakes, N.Y.). Blood was added to sterile polystyrene round bottom 96-well tissue culture plates (Corning Costar) at 180 Blood was placed in a humidified 37 C incubator with 5% CO2 while compounds were prepared (nearly 60 minutes).
Compounds were prepared from 10 mM stock solutions in dimethylsulfoxide (DMSO, Sigma-Aldrich). Stock compound was diluted in DMSO to give appropriate starting concentration then diluted serially 1/3 in DMSO (i.e. 15 μl compound+30 μl DMSO), followed by diluting each serial dilution 1/167 into vehicle solution (2% DMSO in phosphate buffered saline (Dulbecco's Phosphate Buffered Saline without calcium chloride without magnesium chloride, Invitrogen Corporation, Carlsbad Calif.)). Compound or vehicle was added to blood in 10 μl aliquots as triplicates, omitting the outside wells to minimize possible edge effects. The final highest concentration of each compound in the assay ranged from 3 to 0.3 μM. Final DMSO concentration in the assay was 0.1%. The plate containing the samples was gently vortexed to mix and replaced in the incubator. LPS stock (E. coli serotype 0111:B4, Sigma-Aldrich), stored in aliquots of 100 μg/ml in RPMI at −20° C., was diluted […] in RPMI to make a working stock solution. After 60 minutes of incubation, 10 μl of the prepared LPS working stock was added to the blood to a final concentration of 100 ng/ml. Wells to be used as negative control received RPMI media with no LPS. The plate was again gently vortexed and the plates incubated overnight for 22 hours. Following incubation, the blood was centrifuged at 1500×g for 5 minutes and the plasma removed to either freeze at −20° C. or assay for cytokine release.
IL-1β, IFNγ and TNFα protein levels were measured using Meso Scale assay kits (Meso Scale Discovery, Gaithersburg, Md., U.S.A.). Reagents were allowed to come to room temperature. Meso Scale plates were blocked with 150 μl of Meso Scale Block B diluent, gently shaking at room temperature for 60 minutes. Plates were washed 3× with wash buffer (PBS, Invitrogen Corporation, with 0.05% Tween-20, Sigma-Aldrich). Calibrators for standard curves were prepared in human plasma/serum assay diluent as a 1/5 serial dilution to achieve final concentrations ranging from 50000 pg/ml to 3.2 pg/ml. Samples were added at 10 to 20 μl/well and calibrators were added at 20 μl/well then incubated at room temperature with gentle shaking for 2 hours. Plates were again washed 3× with wash buffer. Detection antibody was diluted in human plasma/serum antibody diluent to 1 μg/ml and added to the plate at 20 μl/well. Plates were incubated as before for 2 hours and washed again. Read Buffer T (4×) was diluted 1:1 with mqH20 to 2× concentration and 150 μl added to each well. Plates were read on the SECTOR Imager 6000 (Meso Scale Discovery) to generate raw signal values.
Individual sample signal values were compared to positive and negative controls (vehicle treated blood with LPS and vehicle treated blood without LPS, respectively) to generate % inhibition. Triplicate values were averaged for each donor. The values for three or four donors were averaged and graphed using 4-parameter fit curves in the LabStats plug-in for the Microsoft Excel application.

For the compound `Cc1ncccc1NC(=O)c1ccc2c(c1)C(=O)C[C@@H]1C[C@@](O)(c3ccccc3)[C@](C)(O)C[C@@]21Cc1ccccc1` [Example 1, (4bR,6R,7R,8aS)-4b-benzyl-6,7-dihydroxy-6-methyl-N-(2-methylpyridin-3-yl)-10-oxo-7-phenyl-4b,5,6,7,8,8a,9,10-octahydrophenanthrene-2-carboxamide], the ED50 at 28 days with bone formation rate (female, Swiss Webster, read-out: BFR (ED50 dose)) is 0.12 mg/kg. In addition, the “BFR (ED80 dose)” value with bone formation rate is listed as 0.87. Also, the inhibition at 0.000137174 µM in the series with TNFα (Homo sapiens, 0.137174 nM, mean of donors) was determined as 0.604%. In addition, in the series on TNFα (Homo sapiens, 0.411523 nM, mean of donors), the inhibition at 0.000411523 µM is -3.62%. The inhibition at 0.00123457 µM with TNFα (Homo sapiens, 1.234568 nM, mean of donors) is 0.811%. Further, the inhibition at 0.0037037 µM in the series on TNFα (Homo sapiens, 3.703704 nM, mean of donors) turned out to be 7.09%. Also, in the series on TNFα (Homo sapiens, 11.11111 nM, mean of donors), the inhibition at 0.0111111 µM was 18.1%. Also, the inhibition at 0.0333333 µM in the series with TNFα (Homo sapiens, 33.33333 nM, mean of donors) amounted to 30.7%. Besides, the inhibition at 0.1 µM in the series on TNFα (Homo sapiens, 100 nM, mean of donors) was found to be 42.2%. Besides, the inhibition at 0.3 µM with TNFα (Homo sapiens, 300 nM, mean of donors) was found to be 42.8%. Moreover, the “level of inhibition of TNF” value in the series with TNFα (ex vivo LPS-stimulated human whole blood, extent of inhibition, concentration not given) is 43%.

As usually defined, the ED50 is the dose at which the effect has come halfway, by size or by number of responders. What is called inhibition is the relative decrease from the control value, in per cent.
